# In PubChem BioAssay (NCI):
#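 Following 48 hours of exposure in 96-well plates, responses at five concentrations were used to interpolate endpoints linearly. The concentration for full growth arrest is given as TGI.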
# Tests used:
# Assay in all cases: NCI tumour cell line growth inhibition, 48 h
# OVCAR-8 ovarian = tested on: OVCAR-8 ovarian
# HOP-62 NSCLC = tested on: HOP-62 NSCLC
# HT29 colon = tested on: HT29 colon
# SK-OV-3 ovarian = tested on: SK-OV-3 ovarian
# UO-31 renal = tested on: UO-31 renal
# NCI-H23 lung = tested on: NCI-H23 lung
# SF-295 CNS = tested on: SF-295 CNS
# MDA-MB-435 = tested on: MDA-MB-435
# U251 CNS = tested on: U251 CNS
# NCI-H226 lung = tested on: NCI-H226 lung
# SW-620 colon = tested on: SW-620 colon
# NCI-H460 lung = tested on: NCI-H460 lung
# CCRF-CEM leukemia = tested on: CCRF-CEM leukemia
# MOLT-4 leukemia = tested on: MOLT-4 leukemia
# EKVX NSCLC = tested on: EKVX NSCLC
# IGROV1 ovarian = tested on: IGROV1 ovarian
# NCI/ADR-RES ovarian = tested on: NCI/ADR-RES ovarian
# PC-3 prostate = tested on: PC-3 prostate
# K-562 leukemia = tested on: K-562 leukemia
# OVCAR-5 ovarian = tested on: OVCAR-5 ovarian
# COLO 205 colon = tested on: COLO 205 colon
# SK-MEL-5 melanoma = tested on: SK-MEL-5 melanoma
# SN12C renal = tested on: SN12C renal
# HL-60(TB) leukemia = tested on: HL-60(TB) leukemia
# RXF 393 renal = tested on: RXF 393 renal
# DU-145 prostate = tested on: DU-145 prostate
# ACHN renal = tested on: ACHN renal
# HCT-116 colon = tested on: HCT-116 colon
# KM12 colon = tested on: KM12 colon
# OVCAR-4 ovarian = tested on: OVCAR-4 ovarian
# M14 melanoma = tested on: M14 melanoma
# UACC-257 melanoma = tested on: UACC-257 melanoma
# RPMI-8226 leukemia = tested on: RPMI-8226 leukemia
# HCT-15 colon = tested on: HCT-15 colon
# SK-MEL-2 melanoma = tested on: SK-MEL-2 melanoma
# SNB-75 CNS = tested on: SNB-75 CNS
# OVCAR-3 ovarian = tested on: OVCAR-3 ovarian
# CAKI-1 renal = tested on: CAKI-1 renal
# MDA-N = tested on: MDA-N
# UACC-62 melanoma = tested on: UACC-62 melanoma
# SF-268 CNS = tested on: SF-268 CNS
# LOX IMVI melanoma = tested on: LOX IMVI melanoma
# SNB-19 CNS = tested on: SNB-19 CNS
# A498 renal = tested on: A498 renal
# HS 578T breast = tested on: HS 578T breast
# SK-MEL-28 melanoma = tested on: SK-MEL-28 melanoma
# A549 NSCLC = tested on: A549 NSCLC
# 786-0 renal = tested on: 786-0 renal
# MDA-MB-231 breast = tested on: MDA-MB-231 breast
# NCI-H522 lung = tested on: NCI-H522 lung
# TK-10 renal = tested on: TK-10 renal
# BT-549 breast = tested on: BT-549 breast
# MALME-3M melanoma = tested on: MALME-3M melanoma
# HCC-2998 colon = tested on: HCC-2998 colon
# MCF7 breast = tested on: MCF7 breast
# SF-539 CNS = tested on: SF-539 CNS
# HOP-92 NSCLC = tested on: HOP-92 NSCLC
smiles,measurement,setting,value
c1ccc(C2CC(=NC3CCCCC3)Nc3ccccc3N2)cc1 (stereo not drawn),TGI,OVCAR-8 ovarian,> 100 µM
same,TGI,HOP-62 NSCLC,> 100 µM
same,TGI,HT29 colon,> 100 µM
same,TGI,SK-OV-3 ovarian,> 100 µM
same,TGI,UO-31 renal,> 100 µM
same,TGI,NCI-H23 lung,> 100 µM
same,TGI,SF-295 CNS,> 100 µM
same,TGI,MDA-MB-435,> 100 µM
same,TGI,U251 CNS,> 100 µM
same,TGI,NCI-H226 lung,> 100 µM
same,TGI,SW-620 colon,> 100 µM
same,TGI,NCI-H460 lung,> 100 µM
same,TGI,CCRF-CEM leukemia,> 100 µM
same,TGI,MOLT-4 leukemia,> 100 µM
same,TGI,EKVX NSCLC,> 100 µM
same,TGI,IGROV1 ovarian,> 100 µM
same,TGI,NCI/ADR-RES ovarian,> 100 µM
same,TGI,PC-3 prostate,> 100 µM
same,TGI,K-562 leukemia,> 100 µM
same,TGI,OVCAR-5 ovarian,> 100 µM
same,TGI,COLO 205 colon,> 100 µM
same,TGI,SK-MEL-5 melanoma,43.7 µM
same,TGI,SN12C renal,> 100 µM
same,TGI,HL-60(TB) leukemia,> 100 µM
same,TGI,RXF 393 renal,> 100 µM
same,TGI,DU-145 prostate,> 100 µM
same,TGI,ACHN renal,> 100 µM
same,TGI,HCT-116 colon,> 100 µM
same,TGI,KM12 colon,> 100 µM
same,TGI,OVCAR-4 ovarian,> 100 µM
same,TGI,M14 melanoma,> 100 µM
same,TGI,UACC-257 melanoma,> 100 µM
same,TGI,RPMI-8226 leukemia,> 100 µM
same,TGI,HCT-15 colon,> 100 µM
same,TGI,SK-MEL-2 melanoma,> 100 µM
same,TGI,SNB-75 CNS,78.4 µM
same,TGI,OVCAR-3 ovarian,> 100 µM
same,TGI,CAKI-1 renal,> 100 µM
same,TGI,MDA-N,> 100 µM
same,TGI,UACC-62 melanoma,> 100 µM
same,TGI,SF-268 CNS,> 100 µM
same,TGI,LOX IMVI melanoma,55.2 µM
same,TGI,SNB-19 CNS,> 100 µM
same,TGI,A498 renal,93.7 µM
same,TGI,HS 578T breast,94.8 µM
same,TGI,SK-MEL-28 melanoma,> 100 µM
same,TGI,A549 NSCLC,> 100 µM
same,TGI,786-0 renal,> 100 µM
same,TGI,MDA-MB-231 breast,> 100 µM
same,TGI,NCI-H522 lung,78.1 µM
same,TGI,TK-10 renal,> 100 µM
same,TGI,BT-549 breast,> 100 µM
same,TGI,MALME-3M melanoma,50.1 µM
O=C1C=CC(=O)C(CNc2ccc(C(=O)OCc3ccccc3)cc2)=C1,TGI,OVCAR-8 ovarian,16.8 µM
same,TGI,HOP-62 NSCLC,33 µM
same,TGI,HT29 colon,31.8 µM
same,TGI,SK-OV-3 ovarian,30.8 µM
same,TGI,UO-31 renal,7.49 µM
same,TGI,NCI-H23 lung,30.1 µM
same,TGI,SF-295 CNS,34.5 µM
same,TGI,HCC-2998 colon,31.6 µM
same,TGI,MDA-MB-435,18.7 µM
same,TGI,U251 CNS,19.9 µM
same,TGI,MCF7 breast,18.5 µM
same,TGI,NCI-H226 lung,28 µM
same,TGI,SW-620 colon,19.6 µM
same,TGI,NCI-H460 lung,38.9 µM
same,TGI,MOLT-4 leukemia,> 100 µM
same,TGI,EKVX NSCLC,23.7 µM
same,TGI,IGROV1 ovarian,12.6 µM
same,TGI,NCI/ADR-RES ovarian,23.5 µM
same,TGI,PC-3 prostate,13.4 µM
same,TGI,K-562 leukemia,> 100 µM
same,TGI,OVCAR-5 ovarian,29.5 µM
same,TGI,COLO 205 colon,3.79 µM
same,TGI,SK-MEL-5 melanoma,11.6 µM
same,TGI,SN12C renal,19.3 µM
same,TGI,RXF 393 renal,8.54 µM
same,TGI,DU-145 prostate,25.1 µM
same,TGI,ACHN renal,12.9 µM
same,TGI,HCT-116 colon,18.2 µM
same,TGI,KM12 colon,23.4 µM
same,TGI,OVCAR-4 ovarian,10.4 µM
same,TGI,M14 melanoma,20.8 µM
same,TGI,UACC-257 melanoma,25.2 µM
same,TGI,SF-539 CNS,7.29 µM
same,TGI,RPMI-8226 leukemia,> 21 µM
same,TGI,HCT-15 colon,9.1 µM
same,TGI,SK-MEL-2 melanoma,30 µM
same,TGI,SNB-75 CNS,18.4 µM
same,TGI,OVCAR-3 ovarian,7.23 µM
same,TGI,CAKI-1 renal,2.94 µM
same,TGI,MDA-N,19.5 µM
same,TGI,UACC-62 melanoma,22.6 µM
same,TGI,SF-268 CNS,21.8 µM
same,TGI,LOX IMVI melanoma,17.8 µM
same,TGI,SNB-19 CNS,26.5 µM
same,TGI,A498 renal,23.5 µM
same,TGI,HS 578T breast,55.4 µM
same,TGI,SK-MEL-28 melanoma,17.4 µM
same,TGI,A549 NSCLC,32.1 µM
same,TGI,786-0 renal,13.6 µM
same,TGI,MDA-MB-231 breast,24.9 µM
same,TGI,NCI-H522 lung,2.87 µM
same,TGI,HOP-92 NSCLC,3.8 µM
same,TGI,TK-10 renal,14.9 µM
same,TGI,BT-549 breast,9.31 µM
same,TGI,MALME-3M melanoma,7.22 µM
